In BindingDB's records for doi:10.1016/j.bmc.2010.08.049 (University of Wisconsin-Milwaukee, 2010) one finds Ki data, which are given here for two molecules.

By Ki is commonly meant the dissociation constant of the complex between target and ligand, obtained from inhibition or displacement.

The target in assay [1] is T1, Gamma-aminobutyric acid receptor subunit alpha-3/beta-3/gamma-2 (Homo sapiens, UniProt P34903+P18507+P28472).
T1 sequence (P34903 whole entry): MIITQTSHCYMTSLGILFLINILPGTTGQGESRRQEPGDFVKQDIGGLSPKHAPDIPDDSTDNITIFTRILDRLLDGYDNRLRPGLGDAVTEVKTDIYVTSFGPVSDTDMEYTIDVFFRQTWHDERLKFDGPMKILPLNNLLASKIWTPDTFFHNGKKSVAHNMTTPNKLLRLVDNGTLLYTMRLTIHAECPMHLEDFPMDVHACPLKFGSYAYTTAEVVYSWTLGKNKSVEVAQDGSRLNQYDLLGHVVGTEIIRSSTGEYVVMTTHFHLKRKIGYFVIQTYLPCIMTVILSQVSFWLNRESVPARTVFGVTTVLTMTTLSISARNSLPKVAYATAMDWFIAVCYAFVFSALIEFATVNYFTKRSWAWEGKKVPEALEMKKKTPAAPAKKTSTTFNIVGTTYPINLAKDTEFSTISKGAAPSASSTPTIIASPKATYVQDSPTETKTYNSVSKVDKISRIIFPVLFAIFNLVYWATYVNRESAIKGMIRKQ
T1 sequence (P18507 whole entry): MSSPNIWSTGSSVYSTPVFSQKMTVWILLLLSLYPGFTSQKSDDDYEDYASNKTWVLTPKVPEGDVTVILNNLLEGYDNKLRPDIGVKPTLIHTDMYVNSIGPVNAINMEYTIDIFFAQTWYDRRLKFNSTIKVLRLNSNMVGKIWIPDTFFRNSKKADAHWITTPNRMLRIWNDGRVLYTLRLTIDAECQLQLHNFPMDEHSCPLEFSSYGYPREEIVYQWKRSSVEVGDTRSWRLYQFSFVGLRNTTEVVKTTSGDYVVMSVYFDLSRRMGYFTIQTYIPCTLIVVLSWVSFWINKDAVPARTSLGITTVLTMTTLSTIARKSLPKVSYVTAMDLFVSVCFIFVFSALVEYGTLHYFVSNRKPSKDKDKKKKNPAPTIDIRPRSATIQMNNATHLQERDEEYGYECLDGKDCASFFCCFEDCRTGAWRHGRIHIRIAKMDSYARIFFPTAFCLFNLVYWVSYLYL
T1 sequence (P28472 whole entry): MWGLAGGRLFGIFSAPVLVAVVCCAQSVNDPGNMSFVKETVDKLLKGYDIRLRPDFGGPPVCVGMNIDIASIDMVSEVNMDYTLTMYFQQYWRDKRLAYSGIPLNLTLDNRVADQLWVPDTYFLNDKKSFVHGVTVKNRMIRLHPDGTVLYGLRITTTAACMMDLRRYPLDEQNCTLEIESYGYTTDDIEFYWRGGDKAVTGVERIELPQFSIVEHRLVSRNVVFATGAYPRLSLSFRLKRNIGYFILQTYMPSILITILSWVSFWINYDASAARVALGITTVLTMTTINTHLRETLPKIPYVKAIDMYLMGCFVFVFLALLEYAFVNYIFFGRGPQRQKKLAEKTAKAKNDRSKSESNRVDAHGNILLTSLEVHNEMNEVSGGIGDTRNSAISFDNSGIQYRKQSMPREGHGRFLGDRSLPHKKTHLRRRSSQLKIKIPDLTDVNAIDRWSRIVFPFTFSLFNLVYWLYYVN
In words: Displacement of [3H]flunitrazepam from human recombinant GABAA alpha-3-beta-3-gamma-2 receptor expressed in HEK cells by liquid scintillation counting.

The target of assay [2] is T2, Gamma-aminobutyric acid receptor subunit alpha-1/beta-3/gamma-2 (Homo sapiens, UniProt P14867+P18507+P28472).
T2 sequence (P14867 whole entry): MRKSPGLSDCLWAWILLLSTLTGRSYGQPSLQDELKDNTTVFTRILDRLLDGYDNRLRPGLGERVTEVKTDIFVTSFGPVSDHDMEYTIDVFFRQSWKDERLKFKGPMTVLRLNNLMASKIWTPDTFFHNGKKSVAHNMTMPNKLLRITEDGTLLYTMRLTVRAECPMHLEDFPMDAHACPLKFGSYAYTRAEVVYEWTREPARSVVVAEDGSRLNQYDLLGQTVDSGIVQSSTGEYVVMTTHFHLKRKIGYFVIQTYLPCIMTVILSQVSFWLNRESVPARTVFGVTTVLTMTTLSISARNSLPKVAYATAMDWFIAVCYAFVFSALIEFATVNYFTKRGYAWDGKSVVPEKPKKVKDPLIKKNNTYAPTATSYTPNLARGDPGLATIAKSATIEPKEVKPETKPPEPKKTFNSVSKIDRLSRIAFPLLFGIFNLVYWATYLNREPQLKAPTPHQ
T2 sequence (P18507 whole entry): T1 sequence (P18507 whole entry)
T2 sequence (P28472 whole entry): T1 sequence (P28472 whole entry)
In words: Displacement of [3H]flunitrazepam from human recombinant GABAA alpha-1-beta-3-gamma-2 receptor expressed in HEK cells by liquid scintillation counting. (In general: In a radioligand displacement assay an active substance lowers the binding of a labelled ligand.)

Assay [3] addresses T3, GABA-A receptor; alpha-2/beta-3/gamma-2 (Homo sapiens, UniProt P47869+P18507+P28472).
T3 sequence (P47869 whole entry): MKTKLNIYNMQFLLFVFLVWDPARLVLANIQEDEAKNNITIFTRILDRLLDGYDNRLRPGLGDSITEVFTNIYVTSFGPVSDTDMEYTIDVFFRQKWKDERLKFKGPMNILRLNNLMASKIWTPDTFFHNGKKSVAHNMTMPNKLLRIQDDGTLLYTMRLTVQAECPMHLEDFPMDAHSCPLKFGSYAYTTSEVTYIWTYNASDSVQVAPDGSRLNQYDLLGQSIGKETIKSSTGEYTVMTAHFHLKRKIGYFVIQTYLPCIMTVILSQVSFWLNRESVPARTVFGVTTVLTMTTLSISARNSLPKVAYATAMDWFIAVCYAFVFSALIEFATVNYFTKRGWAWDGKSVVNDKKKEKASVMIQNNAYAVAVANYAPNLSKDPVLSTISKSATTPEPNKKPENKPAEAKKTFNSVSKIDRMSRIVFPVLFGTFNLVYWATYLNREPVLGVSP
T3 sequence (P18507 whole entry): T1 sequence (P18507 whole entry)
T3 sequence (P28472 whole entry): T1 sequence (P28472 whole entry)
In words: Displacement of [3H]flunitrazepam from human recombinant GABAA alpha-2-beta-3-gamma-2 receptor expressed in HEK cells by liquid scintillation counting.

In assay [4] the target is T4, GABA-A receptor; alpha-5/beta-3/gamma-2 (Homo sapiens, UniProt P31644+P18507+P28472).
T4 sequence (P31644 whole entry): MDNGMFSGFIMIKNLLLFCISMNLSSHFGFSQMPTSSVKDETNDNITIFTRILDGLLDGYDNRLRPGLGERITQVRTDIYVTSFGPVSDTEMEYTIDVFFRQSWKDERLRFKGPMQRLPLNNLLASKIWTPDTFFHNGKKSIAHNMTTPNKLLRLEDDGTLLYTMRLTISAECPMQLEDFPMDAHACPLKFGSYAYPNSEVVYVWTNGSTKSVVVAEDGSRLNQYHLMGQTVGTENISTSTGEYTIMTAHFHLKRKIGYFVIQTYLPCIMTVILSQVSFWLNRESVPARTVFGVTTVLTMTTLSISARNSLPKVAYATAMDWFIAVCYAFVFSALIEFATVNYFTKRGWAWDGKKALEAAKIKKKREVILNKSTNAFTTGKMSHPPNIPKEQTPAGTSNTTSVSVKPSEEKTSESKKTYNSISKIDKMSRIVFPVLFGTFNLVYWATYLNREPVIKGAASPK
T4 sequence (P18507 whole entry): T1 sequence (P18507 whole entry)
T4 sequence (P28472 whole entry): T1 sequence (P28472 whole entry)
Nature of the assay: Displacement of [3H]flunitrazepam from human recombinant GABAA alpha-5-beta-3-gamma-2 receptor expressed in HEK cells by liquid scintillation counting.

The target in assay [5] is Gamma-aminobutyric acid receptor subunit alpha-6/beta-3/gamma-2 (Homo sapiens, UniProt Q16445+P18507+P28472). Nature of the assay: Displacement of [3H]flunitrazepam from human recombinant GABAA alpha-6-beta-3-gamma-2 receptor expressed in HEK cells by liquid scintillation counting.
Assay [6] deals with GABA A receptor alpha-4/beta-3/gamma-2 (Homo sapiens, UniProt P48169+P18507+P28472). In words: Displacement of [3H]flunitrazepam from human recombinant GABAA alpha-4-beta-3-gamma-2 receptor expressed in HEK cells by liquid scintillation counting.
Chain of GABA A receptor alpha-4/beta-3/gamma-2 (P48169 whole entry, one chain of several): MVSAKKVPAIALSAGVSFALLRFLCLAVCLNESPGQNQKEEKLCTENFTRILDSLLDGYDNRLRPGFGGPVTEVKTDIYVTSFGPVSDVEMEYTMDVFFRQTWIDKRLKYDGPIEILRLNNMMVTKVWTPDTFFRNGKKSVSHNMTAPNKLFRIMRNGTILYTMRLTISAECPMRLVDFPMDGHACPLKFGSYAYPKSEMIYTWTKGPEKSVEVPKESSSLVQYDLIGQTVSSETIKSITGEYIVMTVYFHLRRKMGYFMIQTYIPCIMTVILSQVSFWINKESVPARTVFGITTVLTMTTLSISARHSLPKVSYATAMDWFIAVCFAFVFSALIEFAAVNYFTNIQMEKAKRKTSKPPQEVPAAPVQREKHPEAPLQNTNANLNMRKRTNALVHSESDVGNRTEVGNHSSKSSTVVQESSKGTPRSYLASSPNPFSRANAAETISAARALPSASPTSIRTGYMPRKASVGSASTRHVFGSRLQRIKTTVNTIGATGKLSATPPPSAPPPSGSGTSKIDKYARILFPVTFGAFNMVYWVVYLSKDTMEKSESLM

Chain of Gamma-aminobutyric acid receptor subunit alpha-6/beta-3/gamma-2 (Q16445 whole entry, one chain of several): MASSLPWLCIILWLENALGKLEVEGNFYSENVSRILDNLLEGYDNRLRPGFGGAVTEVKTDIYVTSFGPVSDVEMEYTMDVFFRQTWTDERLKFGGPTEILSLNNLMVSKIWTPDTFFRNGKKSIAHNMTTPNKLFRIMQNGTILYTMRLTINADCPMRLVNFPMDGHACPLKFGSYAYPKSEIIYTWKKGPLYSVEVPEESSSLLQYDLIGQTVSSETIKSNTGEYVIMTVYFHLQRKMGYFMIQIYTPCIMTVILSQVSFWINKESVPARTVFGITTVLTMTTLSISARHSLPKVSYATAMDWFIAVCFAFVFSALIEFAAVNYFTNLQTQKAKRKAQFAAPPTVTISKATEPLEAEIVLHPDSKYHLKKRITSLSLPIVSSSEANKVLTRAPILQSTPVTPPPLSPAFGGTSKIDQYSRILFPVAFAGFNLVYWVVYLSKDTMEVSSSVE

As to `CCC(OC(=O)c1cc2c(cn1)[nH]c1ccccc12)C(F)(F)F` (stereo not given) [1,1,1-trifluorobutan-2-yl 9H-pyrido[3,4-b]indole-3-carboxylate], the Ki in assay [1], in assay [2], in assay [3] and in assay [4] was 1 µM each time.

For `CC(OC(=O)c1cc2c(cn1)[nH]c1ccccc12)C(Cl)(Cl)Cl` (stereo not given) [1,1,1-trichloropropan-2-yl 9H-pyrido[3,4-b]indole-3-carboxylate], the Ki in assay [1] worked out at 2 µM; in assay [5], 5 µM; in assay [6], 3 µM; in assay [2] it was 2 µM; in assay [3] it was 2 µM; in assay [4], 2 µM.
